Like-named read-outs stand apart in the source and are kept apart here.
Assays:
[1] = Pharmacokinetics study after IV and PO administration to SD rats; format: in vivo; conditions: rat, plasma; for AUC / MRT: SD
Protocol: The appropriate amount of YTH‐60 was accurately weighed, added to the final volume of 5% DMSO, 40% PEG400 and 55% normal saline, and vortexed or ultrasonicated to fully mix. Then, 0.4 and 2 mg·mL^−1 of clarified dosing solution was used for intravenous administration and oral gavage administration. SD rats were transferred from the Experimental Animal Library (999 M‐017), Shanghai Xipuer‐Beikai Experimental Animal Co. Ltd. After oral, intravenous or intragastric administration, blood was collected by jugular vein or other suitable methods. Approximately 0.20 mL of each sample was collected, in the presence of heparin sodium as an anticoagulant. After the blood samples were collected, they were placed on ice and centrifuged to separate plasma within 2 hours (centrifugation conditions: centrifugal force 6800 g, 6 minutes, 2‐8°C). The collected plasma samples were stored at −80°C before analysis by LC‐MS/MS‐18. After analysis, the remaining plasma samples were stored at −80°C for a period of 1 month.

[2] = system: MRC‐5 human embryo lung fibroblast; assay: Cell viability assay (CCK8); format: cell-based; conditions: MRC‐5, 24‐72 hours
Protocol: (§1) The cell viability of YTH‐60 and Nintedanib treatment was performed by MTT and CCK8 assay. Briefly, the exponentially growing cells were seeded in 96‐well (2‐5 × 10^3 cells·well^−1) and cultured for 24 hours. The cells were treated with different concentrations of YTH‐60 (0, 0.625, 1.25, 2.5, 5, 10 µmol·L^−1), after treatment for 24, 48 and 72 hours, respectively, a volume of 20 μL of 5 mg·mL^−1 MTT solution or 10 μL CCK‐8 solution was added to each well and incubation for 2‐4 hours at 37°C. Finally, the 96‐well plates were read on Multiskan FC microplate spectrophotometer at 570 or 450 nm wavelength.

[3] = system: Human pulmonary fibroblasts (HPF); assay: Cell viability assay (CCK8); format: cell-based; conditions: 24‐72 hours
Protocol: as §1

[4] = system: NIH‐3T3 (mouse embryonic fibroblast); assay: Cell viability assay (CCK8); format: cell-based; conditions: NIH‐3T3, 24‐72 hours
Protocol: as §1

[5] = system: lung MDSCs and macrophages; assay: Flow cytometry of MDSCs and macrophages in lung tissue of BLM mice; format: in vivo, C57BL/6 mice; conditions: 30 mg·kg^−1 i.p.
Protocol: Male C57BL/6 mice (8‐10 weeks old) were purchased from HFK Bioscience Co. Ltd. All animal experiments were permitted by the Institutional Animal Care and Treatment Committee of Sichuan University in China (New Permit Number: 20190524003). Lung fibrosis was induced using BLM treatment (2 mg·kg^−1). All C57BL/6 mice were divided into five groups (n = 10): a BLM + Nintedanib group (Nintedanib, 30 mg·kg^−1), a BLM + YTH‐60 group (YTH‐60, 15 mg·kg^−1 and 30 mg·kg^−1), a control group (Sham), and a bleomycin group (Vehicle). At the beginning, the mice were anaesthetized using 10% chloral hydrate, dissolved BLM with saline and administered intratracheally. To evaluate the preventive effect, the next day after BLM challenge, YTH‐60 and Nintedanib were administered intraperitoneally daily for 13 days (fibroproliferation) to the mice. All mice were sacrificed 24 hours after the last drug injection, the lungs and other organs were taken for the subsequent analysis. To test the therapeutic effect, after the 7th day of BLM treatment, mice were injected intraperitoneally with YTH‐60, Nintedanib and vehicle daily for 7 consecutive days (fibroproliferation).
We analysed the percentage of MDSCs and macrophages by Flow cytometry (FCM). ^22 Use scissors to cut approximately 30 mg of mouse lung tissues into small pieces and use 5 mL of collagenase‐IV with a concentration of 1 mg·mL^−1, digested at 37°C for at least 1 hour. Centrifuge at 400 g for 5 minutes and discard the supernatant. Then, add another 5 mL PBS to resuspend, after precipitation, taken the supernatant and mixed with the corresponding fluorochromium binding antibody, incubate for 30 minutes in the dark at 4°C (MDSCs with PE^−CD11b^−, FITC^−Gr1^− conjugated dual labelling and macrophages with PE^−F4/80^−, FITC^−CD11b^− conjugated dual labelling). The data were acquired with a FACS Canton II NovoCyte (ACEA).

[6] = Sprague-Dawley, iv, 2 mg/kg, IV 2 mg/kg, individual animals 101, 102, 103, read-out: Individual plasma concentration
[7] = Sprague-Dawley, iv, 2 mg/kg, IV 2 mg/kg, read-out: Mean plasma concentration
[8] = Sprague-Dawley, po, 20 mg/kg, PO 20 mg/kg, individual animals 201, 202, 203, read-out: Individual plasma concentration
[9] = Sprague-Dawley, po, 20 mg/kg, PO 20 mg/kg, read-out: Mean plasma concentration

AUC ([1]; po, 20 mg/kg, SD rats, 20 mg·kg^−1 oral administration, read-out: mean AUC(0‐t)): 1380 ng·h/mL
AUC ([1]; po, 20 mg/kg, SD rats, p.o. 20 mg·kg^−1, read-out: AUC0‐t): 1380 ± 152 ng·h/mL
AUC ([1]; po, 20 mg/kg, SD rats, p.o. 20 mg·kg^−1, read-out: AUC0‐∞): 1610 ± 177 ng·h/mL
MRT ([1]; po, 20 mg/kg, SD rats, p.o. 20 mg·kg^−1, read-out: MRT0‐t): 8.38 ± 0.31 h
MRT ([1]; po, 20 mg/kg, SD rats, p.o. 20 mg·kg^−1, read-out: MRT0‐∞): 12.4 ± 2.67 h
concentration at 0.083 h [1, 6]: 355 ng/mL
concentration at 0.083 h [1, 7]: 380 ng/mL
concentration at 0.25 h [1, 6]: 187 ng/mL
concentration at 0.25 h [1, 7]: 187 ng/mL
concentration at 0.5 h [1, 6]: 153 ng/mL
concentration at 0.5 h [1, 7]: 149 ng/mL
concentration at 1 h [1, 6]: 112 ng/mL
concentration at 1 h [1, 7]: 117 ng/mL
concentration at 8 h ([1]; Sprague-Dawley, iv, 2 mg/kg, IV 2 mg/kg, 8 h, read-out: Mean plasma concentration): 25 ng/mL
concentration at 24 h [1, 6]: 2.27 ng/mL
concentration at 24 h [1, 7]: 2.82 ng/mL
concentration at 0.25 h [1, 8]: 33.6 ng/mL
concentration at 0.25 h [1, 9]: 31.6 ng/mL
concentration at 0.5 h [1, 8]: 40.6 ng/mL
concentration at 0.5 h [1, 9]: 33.8 ng/mL
concentration at 1 h [1, 8]: 35.9 ng/mL
concentration at 1 h [1, 9]: 32.1 ng/mL
concentration at 24 h [1, 8]: 24.5 ng/mL
concentration at 24 h [1, 9]: 19.1 ng/mL
Cmax ([1]; iv, SD rats, i.v. 2 mg·kg^−1): 380 ± 37 ng/mL
Tmax ([1]; iv, SD rats, i.v. 2 mg·kg^−1): 0.08 h
half-life ([1]; iv, SD rats, i.v. 2 mg·kg^−1): 4.92 ± 0.17 h
clearance ([1]; iv, SD rats, i.v. 2 mg·kg^−1, unit inferred): 42.5 mL/min/kg
Cmax ([1]; po, SD rats, p.o. 20 mg·kg^−1): 95.8 ± 16.6 ng/mL
Tmax ([1]; po, SD rats, p.o. 20 mg·kg^−1): 4.67 ± 2.31 h
half-life ([1]; po, SD rats, p.o. 20 mg·kg^−1): 8.03 ± 2.16 h
bioavailability ([1]; po, SD rats, p.o. 20 mg·kg^−1, read-out: F (oral bioavailability)): 17.9 ± 1.97%
SMILES: COc1cc(OC)c(Cl)c(-c2ccc3c(/C=C/c4ccc(N(C)C(=O)CN5CCN(C)CC5)cc4)n[nH]c3c2)c1Cl [YTH‐60, (E)‐N‐(4‐(2‐(6‐(2,6‐dichloro‐3,5‐dimethoxyphenyl)‐1H‐indazol‐3‐yl)vinyl)phenyl)‐N‐methyl‐2‐(4‐methylpiperazin‐1‐yl)acetamide]
cell proliferation / viability (in words) [2]: inhibits cell proliferation in a time‐ and concentration‐dependent manner
cell proliferation / viability (in words) [3]: inhibits cell proliferation in a time‐ and concentration‐dependent manner
cell proliferation / viability (in words) [4]: inhibits cell proliferation in a time‐ and concentration‐dependent manner
percentage of CD11b^+F4/80^+ cells (macrophages) in lung ([5]; day 14, BLM group 19.9%, sham 9.9%): 9.27%
percentage of CD11b^+Gr1^+ cells (MDSCs) in lung ([5]; day 14, BLM group 20.5%, sham 5.14%): 7.07%
